Measured values reported in patent US7595334B2, “Broadspectrum 2-(substituted-amino)-benzoxazole sulfonamide HIV protease inhibitors” (Tibotec Pharmaceuticals Ltd., priority 2001, dated 2009).

Key:
[1] = tested on: mock-infected MT4 cells; assay: in vitro
Procedure: (§1) HIV- or mock-infected MT4 cells were incubated for five days in the presence of various concentrations of the inhibitor. […] Cell viability is measured by measuring the concentration of MTT, a yellow, water soluble tetrazolium dye that is converted to a purple, water insoluble formazan in the mitochondria of living cells only. Upon solubilization of the resulting formazan crystals with isopropanol, the absorbance of the solution is monitored at 540 nm. The values correlate directly to the number of living cells remaining in the culture at the completion of the five day incubation. The inhibitory activity of the compound was monitored on the virus-infected cells and was expressed as EC50 and EC90. These values represent the amount of the compound required to protect 50% and 90%, respectively, of the cells from the cytopathogenic effect of the virus. The toxicity of the compound was measured on the mock-infected cells and was expressed as CC50, which represents the concentration of compound required to inhibit the growth of the cells by 50%. The selectivity index (SI) (ratio CC50/EC50) is an indication of the selectivity of the anti-HIV activity of the inhibitor. Wherever results are reported as e.g. pEC50 or pCC50 values, the result is expressed as the negative logarithm of the result expressed as EC50 or CC50 respectively.
(§2) As a measure of the broad spectrum activity of the present compounds, the fold resistance (FR), defined as FR=EC50(mutant strain)/EC50(HIV-1 strain LAI), was determined.

[2] = tested on: HIV strain A (clinically isolated, protease mutations); format: cell-based; conditions: FR=EC50(mutant strain A)/EC50(HIV-1 strain LAI)
Procedure: as §1, §2

[3] = tested on: HIV strain F (clinically isolated, protease mutations); format: cell-based; conditions: FR=EC50(mutant strain F)/EC50(HIV-1 strain LAI)
Procedure: as §1, §2

[4] = tested on: HIV strain D (clinically isolated, protease mutations); format: cell-based; conditions: FR=EC50(mutant strain D)/EC50(HIV-1 strain LAI)
Procedure: as §1, §2

[5] = tested on: HIV strain C (clinically isolated, protease mutations); format: cell-based; conditions: FR=EC50(mutant strain C)/EC50(HIV-1 strain LAI)
Procedure: as §1, §2

[6] = tested on: HIV strain B (clinically isolated, protease mutations); format: cell-based; conditions: FR=EC50(mutant strain B)/EC50(HIV-1 strain LAI)
Procedure: as §1, §2

[7] = tested on: HIV strain E (clinically isolated, protease mutations); format: cell-based; conditions: FR=EC50(mutant strain E)/EC50(HIV-1 strain LAI)
Procedure: as §1, §2

SMILES: CC(C)CN(C[C@@H](O)[C@H](Cc1ccccc1)NC(=O)O[C@H]1CO[C@H]2OCC[C@H]21)S(=O)(=O)c1ccc2nc(NCCN(C)C)oc2c1 [Compound 2]
- Tox (pCC50) [1]: <4
- A (FR) fold resistance [2]: 1.1
- F (FR) fold resistance [3]: 2.7
- D (FR) fold resistance [4]: 0.32
- C (FR) fold resistance [5]: 0.59
- B (FR) fold resistance [6]: 0.49
- E (FR) fold resistance [7]: 0.36

SMILES: CC(C)CN(C[C@@H](O)[C@H](Cc1ccccc1)NC(=O)O[C@H]1CO[C@H]2OCC[C@H]21)S(=O)(=O)c1ccc2nc(N(C)CCN3CCCC3)oc2c1 [Compound 8]
- Tox (pCC50) [1]: <4
- A (FR) fold resistance [2]: 30
- F (FR) fold resistance [3]: 58
- D (FR) fold resistance [4]: 5.8
- C (FR) fold resistance [5]: 1.7
- B (FR) fold resistance [6]: 5.8

SMILES: COC(=O)Nc1nc2ccc(S(=O)(=O)N(CC(C)C)C[C@@H](O)[C@H](Cc3ccccc3)NC(=O)OCc3cncs3)cc2o1 [Compound 9]
- Tox (pCC50) [1]: <4
- A (FR) fold resistance [2]: 3.5
- F (FR) fold resistance [3]: 14.5
- D (FR) fold resistance [4]: 2.7
- C (FR) fold resistance [5]: 1.2
- B (FR) fold resistance [6]: 1.2
- E (FR) fold resistance [7]: 3.6

SMILES: CC(=O)Nc1nc2ccc(S(=O)(=O)N(CC(C)C)C[C@@H](O)[C@H](Cc3ccccc3)NC(=O)OCc3cncs3)cc2o1 [Compound 11]
- Tox (pCC50) [1]: <4
- A (FR) fold resistance [2]: 42
- F (FR) fold resistance [3]: 74
- D (FR) fold resistance [4]: 10
- C (FR) fold resistance [5]: 2.5
- B (FR) fold resistance [6]: 2.1
- E (FR) fold resistance [7]: 4.8

SMILES: CCOC(=O)Nc1nc2ccc(S(=O)(=O)N(CC(C)C)C[C@@H](O)[C@H](Cc3ccccc3)NC(=O)OCc3cncs3)cc2o1 [Compound 12]
- Tox (pCC50) [1]: <4
- A (FR) fold resistance [2]: 8.5
- F (FR) fold resistance [3]: 15
- D (FR) fold resistance [4]: 4.8
- C (FR) fold resistance [5]: 2.5
- B (FR) fold resistance [6]: 1.4
- E (FR) fold resistance [7]: 2.5

SMILES: CC(C)CN(C[C@@H](O)[C@H](Cc1ccccc1)NC(=O)OCc1cncs1)S(=O)(=O)c1ccc2nc(NC(=O)C3CCC(=O)N3)oc2c1 (stereo partly shown) [Compound 13]
- Tox (pCC50) [1]: <4
- A (FR) fold resistance [2]: 2.3
- F (FR) fold resistance [3]: 5.2
- D (FR) fold resistance [4]: 0.91
- C (FR) fold resistance [5]: 0.64
- B (FR) fold resistance [6]: 0.75
- E (FR) fold resistance [7]: 0.91

SMILES: CC(C)CN(C[C@@H](O)[C@H](Cc1ccccc1)NC(=O)OCc1cncs1)S(=O)(=O)c1ccc2nc(NC(=O)c3ccco3)oc2c1 [Compound 14]
- Tox (pCC50) [1]: 5.03
- A (FR) fold resistance [2]: 5.2
- F (FR) fold resistance [3]: 19
- D (FR) fold resistance [4]: 3.7
- C (FR) fold resistance [5]: 3.1
- B (FR) fold resistance [6]: 3.8
- E (FR) fold resistance [7]: 3.1

SMILES: CC(C)CN(C[C@@H](O)[C@H](Cc1ccccc1)NC(=O)OCc1cncs1)S(=O)(=O)c1ccc2nc(NC(=O)C3CCN(C)CC3)oc2c1 [Compound 15]
- Tox (pCC50) [1]: <4
- A (FR) fold resistance [2]: 2.3
- F (FR) fold resistance [3]: 7.8
- D (FR) fold resistance [4]: 1.7
- C (FR) fold resistance [5]: 1.1
- B (FR) fold resistance [6]: 0.81
- E (FR) fold resistance [7]: 1.5

SMILES: CC(C)CN(C[C@@H](O)[C@H](Cc1ccccc1)NC(=O)OCc1cncs1)S(=O)(=O)c1ccc2nc(NC(=O)c3ccccn3)oc2c1 [Compound 16]
- Tox (pCC50) [1]: 4.25
- A (FR) fold resistance [2]: 3.5
- F (FR) fold resistance [3]: 17
- D (FR) fold resistance [4]: 3.3
- C (FR) fold resistance [5]: 0.69
- B (FR) fold resistance [6]: 0.72
- E (FR) fold resistance [7]: 1.1

SMILES: CC(C)CN(C[C@@H](O)[C@H](Cc1ccccc1)NC(=O)OCc1cncs1)S(=O)(=O)c1ccc2nc(NC(=O)c3cccnc3)oc2c1 [Compound 18]
- Tox (pCC50) [1]: 4.24
- A (FR) fold resistance [2]: 2.6
- F (FR) fold resistance [3]: 13
- D (FR) fold resistance [4]: 3.0
- C (FR) fold resistance [5]: 1.5
- B (FR) fold resistance [6]: 0.85
- E (FR) fold resistance [7]: 2.6

SMILES: CC(C)CN(C[C@@H](O)[C@H](Cc1ccccc1)NC(=O)OCc1cncs1)S(=O)(=O)c1ccc2nc(NC(=O)CN(C)C)oc2c1 [Compound 19]
- Tox (pCC50) [1]: <4
- A (FR) fold resistance [2]: 3.0
- F (FR) fold resistance [3]: 17
- D (FR) fold resistance [4]: 2.2
- C (FR) fold resistance [5]: 0.91
- B (FR) fold resistance [6]: 0.81

SMILES: CC(C)CN(C[C@@H](O)[C@H](Cc1ccccc1)NC(=O)OCc1cncs1)S(=O)(=O)c1ccc2nc(NC(=O)CN(C)CCN3CCCC3)oc2c1 [Compound 24]
- Tox (pCC50) [1]: <4
- A (FR) fold resistance [2]: 1.9
- F (FR) fold resistance [3]: 6.8
- D (FR) fold resistance [4]: 1.6
- C (FR) fold resistance [5]: 1.3
- B (FR) fold resistance [6]: 0.53
- E (FR) fold resistance [7]: 1.4

SMILES: CC(C)CN(C[C@@H](O)[C@H](Cc1ccccc1)NC(=O)OCc1cncs1)S(=O)(=O)c1ccc2nc(NC(=O)CN3CCN(C)CC3)oc2c1 [Compound 25]
- Tox (pCC50) [1]: 4.31
- A (FR) fold resistance [2]: 3.9
- F (FR) fold resistance [3]: 18
- D (FR) fold resistance [4]: 3.9
- C (FR) fold resistance [5]: 3.0
- B (FR) fold resistance [6]: 1.3
- E (FR) fold resistance [7]: 3.9

SMILES: CC(C)CN(C[C@@H](O)[C@H](Cc1ccccc1)NC(=O)OCc1cncs1)S(=O)(=O)c1ccc2nc(N(C)C(=O)c3ccccn3)oc2c1 [Compound 26]
- Tox (pCC50) [1]: 4.14
- A (FR) fold resistance [2]: 9.3
- F (FR) fold resistance [3]: 59
- D (FR) fold resistance [4]: 15
- C (FR) fold resistance [5]: 3.4
- B (FR) fold resistance [6]: 2.45
- E (FR) fold resistance [7]: 11

SMILES: CC(C)CN(C[C@@H](O)[C@H](Cc1ccccc1)NC(=O)OCc1cncs1)S(=O)(=O)c1ccc2nc(N(C)C(=O)C3CCC(=O)N3)oc2c1 (stereo partly shown) [Compound 30]
- Tox (pCC50) [1]: <4

SMILES: CC(C)CN(C[C@@H](O)[C@H](Cc1ccccc1)NC(=O)OCc1cncs1)S(=O)(=O)c1ccc2nc(N(C)C(=O)c3ccncc3)oc2c1 [Compound 31]
- Tox (pCC50) [1]: <4
- A (FR) fold resistance [2]: 9.5
- F (FR) fold resistance [3]: 33
- D (FR) fold resistance [4]: 7.6
- C (FR) fold resistance [5]: 1.25
- B (FR) fold resistance [6]: 1.3

SMILES: CC(C)CN(C[C@@H](O)[C@H](Cc1ccccc1)NC(=O)OCc1cncs1)S(=O)(=O)c1ccc2nc(N(C)C(=O)c3cccnc3)oc2c1 [Compound 32]
- Tox (pCC50) [1]: <4
- A (FR) fold resistance [2]: 8.3
- F (FR) fold resistance [3]: 42
- D (FR) fold resistance [4]: 8.1
- C (FR) fold resistance [5]: 1.1
- B (FR) fold resistance [6]: 1.7

SMILES: CC(C)CN(C[C@@H](O)[C@H](Cc1ccccc1)NC(=O)OCc1cncs1)S(=O)(=O)c1ccc2nc(NC(=O)[C@H]3CCCN3C)oc2c1 [Compound 35]
- Tox (pCC50) [1]: 4.26
- A (FR) fold resistance [2]: 13
- F (FR) fold resistance [3]: 48
- D (FR) fold resistance [4]: 3.5
- C (FR) fold resistance [5]: 1.1
- B (FR) fold resistance [6]: 2.3
